Results as given in publication PMC9780942, “Antimicrobial Activity and Immunomodulatory Properties of Acidocin A, the Pediocin-like Bacteriocin with the Non-Canonical Structure” (Membranes, 2022).
Positions of bridges follow the written chain, without caps; N, C: chain ends. No end group written: not given here.

Columns and labels:
L. monocytogenes EGD [1] = type: cell-based, Listeria monocytogenes; details: 24 h
Experimental: (§1) Antibacterial activity of recombinant bacteriocins against a number of Gram-positive and Gram-negative bacteria (Table S2) was determined by the method of two-fold serial dilutions in a liquid medium. Two-fold serial dilutions of bacteriocins were prepared in sterile 96-well flat-bottom polystyrene microplates (Eppendorf, Hamburg, Germany) (Cat. No. 0030730.011) in a volume of 50 µL of sterile 0.1% bovine serum albumin (BSA) (SERVA Electrophoresis GmbH, Heidelberg, Germany) to prevent non-specific sorption of peptides to the surface of the plate wells [23]. Mid-log phase bacterial cultures were diluted with the 2x Mueller-Hinton broth (MHB) (Sigma-Aldrich, St. Louis, MO, USA) to a final cell concentration of 10^6 colony forming units (CFU) per mL. To determine the activity of bacteriocins against Listeria and Enterococci, 3% tryptic soy broth (TSB) (Merck-Millipore, Burlington, MA, USA) was used instead of MHB. Aliquots of 50 μL of diluted bacterial suspensions were added to each well of the plate, which was then incubated at 37 °C and 950 rpm for 24 h using thermostatable plate shaker PST-60HL-4 (Biosan, Riga, Latvia). As a negative control, 50 µL of the sterile growth medium (2xMHB or 6% TSB) was added to the wells containing 50 µL of 0.1% BSA. The values of the minimum inhibitory concentrations (MIC) were determined as the minimum concentration of the peptide, at which there was no visible growth of bacterial culture. Incubation for 2 h with 20 µg/mL chromogenic substrate resazurin (Sigma-Aldrich, St. Louis, MO, USA) was used to detect viable bacterial cells if they were difficult to visually detect. To study the effect of inorganic salts on the antimicrobial activity of bacteriocins, antibacterial activity assay was carried out in MHB medium supplemented with 0.9% NaCl.

[2] = system: E. coli ML-35p cytoplasmic membrane; assay: Cytoplasmic membrane permeability assay with ONPG; type: cell-based; details: PBS pH 7.4 with NaCl, 35 °C, absorbance 405 nm, three independent experiments
Experimental: The ability of the peptides to disrupt the integrity of bacterial membranes was assessed using chromogenic substrates that are unable to enter the intact cell. For these assays, E. coli strain ML-35p was chosen that constitutively expresses β-lactamase (secreted into the periplasmic space), β-galactosidase (that is active in cytoplasm), and lacks lactose permease. Nitrocefin, which is a substrate for lactamase, served as an indicator of increased outer membrane permeability. o-Nitrophenyl-β-D-galactopyranoside (ONPG), a substrate for […], was used to assess the integrity of the cytoplasmic membrane. The bacterial cultures were grown to stationary phase in 3% TSB medium at 37 °C overnight. The cells were washed three times with cold 10 mM phosphate-buffered saline (PBS), pH 7.4 ([…], 2.7 mM KCl, 10 mM Na2HPO4, 1.76 mM KH2PO4), and diluted to the concentration of 3.3 × 10^7 CFU/mL with 10 mM PBS (pH 7.4), containing increased concentration of NaCl (1.2%, or 205 mM) and dissolved nitrocefin (Merck-Millipore, Burlington, MA, USA) or ONPG (AppliChem GmbH, Darmstadt, Germany). […] The plate was incubated at 35 °C, 500 rpm, and the absorbance of the hydrolysis products of ONPG or nitrocefin was measured spectrophotometrically at regular intervals at 405 nm or 492 nm, respectively, using AF2200 microplate reader (Eppendorf, Hamburg, Germany). […]

L. monocytogenes EGD [3] = assay: Agar diffusion (spot-on-lawn) assay; type: cell-based, Listeria monocytogenes; details: 1–10 µg peptide spotted on 3% TSB agar, 37 °C, 24 h
Experimental: Additionally, the activity of bacteriocins against L. monocytogenes EGD was qualitatively determined using agar diffusion (“spot-on-lawn”) assay. An amount of 5 µL of water solutions containing 1–10 µg of purified bacteriocins were applied to agar plates containing 3% TSB medium with mid-log phase culture of L. monocytogenes EGD diluted to a OD600 of about 0.001 (≅7 × 10^5 CFU/mL) and incubated overnight at 37 °C for 24 h. Antibiotic tetracycline (0.5 µg) was used as a positive control. The formation of visible zones of bacterial growth inhibition in places where bacteriocins were added indicated the presence of antimicrobial activity.

E. coli XDR CI 1057 = type: cell-based; details: XDR CI 1057, 24 h
Experimental: as §1

A. baumannii XDR CI 2675 = type: cell-based; details: XDR CI 2675, 24 h
Experimental: as §1

M. phlei Ac-1221 = type: cell-based; details: 24 h
Experimental: as §1

E. coli SQ110 = type: cell-based; details: SQ110, 24 h
Experimental: as §1

M. luteus Ac-2229 = type: cell-based; details: Ac-2229, 24 h
Experimental: as §1

B. licheniformis B-511 = type: cell-based; details: 24 h
Experimental: as §1

E. coli ATCC 25922 = type: cell-based; details: ATCC 25922, 24 h
Experimental: as §1

B. subtilis B-886 = type: cell-based; details: B-886, 24 h
Experimental: as §1

S. aureus 209P = type: cell-based; details: 24 h
Experimental: as §1

L. lactis MK66 = type: cell-based; details: MK66, 24 h
Experimental: as §1

E. coli ML-35p = type: cell-based; details: 24 h
Experimental: as §1

[4] = system: P. aeruginosa MDR CI 1995; type: cell-based; details: MDR CI 1995, 24 h
Experimental: as §1

L. lactis MK43 = assay: Antibacterial activity assay (MIC), two-fold serial dilutions in liquid medium; type: cell-based; details: MHB, 0.1% BSA, 37 °C, 24 h, no visible growth
Experimental: as §1

Sequence: TYYGNGVSCNKKGCSVDWGKAISIIGNNSAANLATGGAAGWKS (disulfide 9-14) [Avicin A]
- Minimum Inhibitory Concentration (L. monocytogenes EGD [1]): <0.125 µM
- Effect on cytoplasmic membrane integrity (ONPG hydrolysis kinetics) [2]: melittin >> acidocin A ≈ pediocin box mutants > peptides without a disulfide bond > avicin A >> AviA(T)
- Antimicrobial activity, zones of growth inhibition (qualitative) (L. monocytogenes EGD [3]): high activity
- Antimicrobial activity, zones of growth inhibition (qualitative) (L. monocytogenes EGD [3]; listed as avicin A): presence of such activity
- Minimum Inhibitory Concentration (E. coli XDR CI 1057): >32 µM
- Minimum Inhibitory Concentration (A. baumannii XDR CI 2675): >32 µM
- Minimum Inhibitory Concentration (M. phlei Ac-1221): >32 µM
- Minimum Inhibitory Concentration (E. coli SQ110): >32 µM
- Minimum Inhibitory Concentration (M. luteus Ac-2229): >32 µM
- Minimum Inhibitory Concentration (B. licheniformis B-511): >32 µM
- Minimum Inhibitory Concentration (E. coli ATCC 25922): >32 µM
- Minimum Inhibitory Concentration (B. subtilis B-886): >32 µM
- Minimum Inhibitory Concentration (S. aureus 209P): >32 µM
- Minimum Inhibitory Concentration (L. lactis MK66): >32 µM
- Minimum Inhibitory Concentration (E. coli ML-35p): >32 µM
- Minimum Inhibitory Concentration [4]: >32 µM
- Minimum Inhibitory Concentration (L. lactis MK43): >32 µM
